Values quoted from earlier work as cited in PMC3262105 (Journal of the American Chemical Society, 2012).

Experiments:
[1] = system: SEVI- and semen-mediated enhancement of HIV infection in T cells
[2] = system: cervical cells; settings: concentration 10 times the IC50 for efficacy
[3] = system: cervical cells; settings: concentration 10 times the IC50 for efficacy; remark: listed apart in the source

Cc1ccc2nc(-c3ccc(NCCOCCOCCOCCOCCOCCO)cc3)sc2c1 [BTA-EG6]
concentration required to nearly completely neutralize the effects of SEVI on HIV-1 infection [1]: 44 µM | IC50 ([1]; read-out: IC50 for reducing SEVI-enhanced infection of HIV, T cells): 13 µM | toxicity to cervical cells [2]: not toxic | pro-inflammatory activity [3]: did not exhibit any pro-inflammatory activity
